Calls of active or inactive are those of the source.
What was measured:
[1] = molecular target: T1, Peroxisome proliferator-activated receptor gamma (Homo sapiens, UniProt P37231); experiment: PPARg ligand-binding domain binders, dose response, PPARg partial agonist project, biochemical, fluorescence polarization, PolarScreen (AID 504453)
T1 sequence (P37231 whole entry): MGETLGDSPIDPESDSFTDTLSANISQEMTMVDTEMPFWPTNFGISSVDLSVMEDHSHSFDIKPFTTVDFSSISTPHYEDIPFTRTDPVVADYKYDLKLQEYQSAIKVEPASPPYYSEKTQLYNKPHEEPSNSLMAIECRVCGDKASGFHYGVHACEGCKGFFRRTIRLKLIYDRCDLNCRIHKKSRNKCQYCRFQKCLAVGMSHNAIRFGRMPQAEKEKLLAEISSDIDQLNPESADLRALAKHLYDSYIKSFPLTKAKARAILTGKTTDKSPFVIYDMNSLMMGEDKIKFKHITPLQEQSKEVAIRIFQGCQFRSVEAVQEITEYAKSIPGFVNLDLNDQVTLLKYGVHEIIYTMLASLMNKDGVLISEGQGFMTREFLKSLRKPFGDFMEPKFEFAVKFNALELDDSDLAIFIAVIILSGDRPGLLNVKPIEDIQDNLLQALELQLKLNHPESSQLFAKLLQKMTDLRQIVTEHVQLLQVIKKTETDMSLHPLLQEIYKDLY

[2] = molecular target: T1, Peroxisome proliferator-activated receptor gamma; experiment: PPARg ligand-binding domain binders, dose response, PPARg partial agonist project, biochemical, TR-FRET, LanthaScreen (AID 504446)
[3] = molecular target: T1, Peroxisome proliferator-activated receptor gamma; experiment: PPARg partial agonists, dose response, cell-based, luminescence, assay provider (AID 504447); type: functional
[4] = molecular target: G-protein coupled receptor 55 (Homo sapiens, UniProt Q9Y2T6); experiment: GPR55 antagonists blocking LPI-driven arrestin recruitment, primary screen, imaging, U2OS, beta-arrestin-GFP, LPI agonist (AID 2013); type: functional;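 also: antagonist potency measured as reduced agonist-driven arrestin aggregation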
Chain of G-protein coupled receptor 55 (Q9Y2T6 whole entry): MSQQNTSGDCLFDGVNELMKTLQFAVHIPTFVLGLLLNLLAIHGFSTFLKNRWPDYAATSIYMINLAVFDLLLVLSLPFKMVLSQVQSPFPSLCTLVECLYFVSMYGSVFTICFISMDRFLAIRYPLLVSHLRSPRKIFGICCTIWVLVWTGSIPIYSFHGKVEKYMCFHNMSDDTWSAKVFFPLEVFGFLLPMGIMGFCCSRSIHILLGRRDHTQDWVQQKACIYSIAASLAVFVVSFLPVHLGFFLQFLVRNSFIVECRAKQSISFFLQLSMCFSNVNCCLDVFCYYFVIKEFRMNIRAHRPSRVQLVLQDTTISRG

Bcl-2-related protein A1 = molecular target: T2, Bcl-2-related protein A1 (Mus musculus, UniProt Q07440); type: functional;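 also: confirmatory dose–response counterscreen on Bfl-1, used to check hits from a UBC13 polyubiquitin inhibitor campaign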
T2 sequence (Q07440 whole entry): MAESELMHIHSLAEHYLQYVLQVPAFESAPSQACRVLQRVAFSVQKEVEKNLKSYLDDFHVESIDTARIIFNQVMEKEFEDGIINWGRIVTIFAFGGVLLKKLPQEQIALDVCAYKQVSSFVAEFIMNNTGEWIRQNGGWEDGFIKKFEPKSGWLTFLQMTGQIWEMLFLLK

[5] = molecular target: T3, Ubiquitin-conjugating enzyme E2 N (Homo sapiens, UniProt P61088); type: functional
T3 sequence (P61088 whole entry): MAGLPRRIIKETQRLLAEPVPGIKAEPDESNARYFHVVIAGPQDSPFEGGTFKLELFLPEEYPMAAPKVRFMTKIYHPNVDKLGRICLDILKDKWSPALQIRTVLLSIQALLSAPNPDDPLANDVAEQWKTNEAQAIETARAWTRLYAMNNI

[6] = molecular target: T3, Ubiquitin-conjugating enzyme E2 N; type: functional; remark: listed apart in the source
[7] = molecular target: T4, Kappa-type opioid receptor (Homo sapiens, UniProt P41145); type: functional
T4 sequence (P41145 whole entry): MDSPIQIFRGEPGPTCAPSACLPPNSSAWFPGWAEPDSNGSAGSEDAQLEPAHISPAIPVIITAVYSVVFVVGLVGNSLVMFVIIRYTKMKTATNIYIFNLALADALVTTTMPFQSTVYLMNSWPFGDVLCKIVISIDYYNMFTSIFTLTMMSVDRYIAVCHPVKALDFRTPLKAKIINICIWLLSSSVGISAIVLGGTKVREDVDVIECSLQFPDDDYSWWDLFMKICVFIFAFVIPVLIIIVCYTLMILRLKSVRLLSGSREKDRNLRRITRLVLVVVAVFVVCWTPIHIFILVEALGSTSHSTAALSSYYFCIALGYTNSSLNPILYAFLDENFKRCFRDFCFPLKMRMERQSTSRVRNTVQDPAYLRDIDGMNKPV

[8] = molecular target: T5, Delta-type opioid receptor (Homo sapiens, UniProt P41143); experiment: HTS Image-Based Screen for Agonists of the DOR Receptor. [Related pubchem assays (depositor defined):AID1777, AID1786, AID2133]; type: functional
T5 sequence (P41143 whole entry): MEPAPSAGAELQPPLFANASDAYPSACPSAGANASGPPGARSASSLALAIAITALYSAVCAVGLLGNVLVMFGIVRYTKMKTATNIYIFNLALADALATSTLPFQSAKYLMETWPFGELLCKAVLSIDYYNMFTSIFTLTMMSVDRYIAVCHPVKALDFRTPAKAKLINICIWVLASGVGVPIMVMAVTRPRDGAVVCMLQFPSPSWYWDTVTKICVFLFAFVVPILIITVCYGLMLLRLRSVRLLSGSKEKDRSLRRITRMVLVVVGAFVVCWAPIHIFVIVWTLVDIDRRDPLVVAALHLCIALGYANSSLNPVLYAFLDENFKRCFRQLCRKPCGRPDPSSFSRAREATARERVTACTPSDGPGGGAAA

[9] = molecular target: T6, Neuropeptides B/W receptor type 1 (Homo sapiens, UniProt P48145); experiment: Fluorescence-based dose response cell-based high throughput screening assay to identify antagonists of the G-protein coupled receptor 7 (GPR7). [Related pubchem assays: 1952 (Screening assay (GPR7 antagonists).), 1880 (Summary AID.)]; type: functional
T6 sequence (P48145 whole entry): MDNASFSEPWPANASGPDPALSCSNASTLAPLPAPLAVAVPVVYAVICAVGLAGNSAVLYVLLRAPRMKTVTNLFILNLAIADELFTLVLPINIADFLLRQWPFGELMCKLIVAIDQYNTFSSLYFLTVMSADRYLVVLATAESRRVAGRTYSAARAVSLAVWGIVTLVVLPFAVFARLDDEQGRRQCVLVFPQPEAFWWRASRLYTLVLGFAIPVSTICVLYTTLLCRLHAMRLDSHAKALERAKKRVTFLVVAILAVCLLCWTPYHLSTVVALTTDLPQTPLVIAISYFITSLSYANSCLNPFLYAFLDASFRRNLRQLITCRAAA

[10] = molecular target: T7, Heat shock factor protein 1 (Mus musculus, UniProt P38532); experiment: HSF1 potentiators in luciferase reporter cells, confirmation, cell-based, NIH3T3, luminescence, dose retest (AID 435004); type: functional;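 also: stress induced by proteasome inhibitor MG132 added 30 min after compound; luciferase reporter driven by HSF1 response element in NIH3T3 cells; actives raise luminescence as potentiators of the MG132 stress response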
T7 sequence (P38532 whole entry): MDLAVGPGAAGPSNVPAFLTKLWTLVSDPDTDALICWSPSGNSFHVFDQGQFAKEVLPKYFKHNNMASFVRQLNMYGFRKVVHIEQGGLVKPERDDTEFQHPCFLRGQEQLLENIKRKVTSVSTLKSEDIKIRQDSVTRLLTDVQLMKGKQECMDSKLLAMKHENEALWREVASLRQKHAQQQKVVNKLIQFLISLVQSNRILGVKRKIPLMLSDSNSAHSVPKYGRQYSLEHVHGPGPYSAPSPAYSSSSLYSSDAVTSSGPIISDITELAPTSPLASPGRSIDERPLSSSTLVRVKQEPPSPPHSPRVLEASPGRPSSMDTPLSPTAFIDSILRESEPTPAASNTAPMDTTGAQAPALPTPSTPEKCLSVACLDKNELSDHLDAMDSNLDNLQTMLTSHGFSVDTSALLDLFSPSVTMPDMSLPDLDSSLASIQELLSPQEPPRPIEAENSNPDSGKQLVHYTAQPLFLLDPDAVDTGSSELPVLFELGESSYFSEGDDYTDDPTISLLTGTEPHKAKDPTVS

[11] = molecular target: Melanin-concentrating hormone receptor 1 (Homo sapiens, UniProt Q99705); experiment: Fluorescence-based counterscreen for antagonists of the G-protein coupled receptor 7 (GPR7): cell-based high throughput dose response assay to identify antagonists of the melanin-concentrating hormone receptor 1 (MCHR1).; type: functional
Chain of Melanin-concentrating hormone receptor 1 (Q99705 whole entry): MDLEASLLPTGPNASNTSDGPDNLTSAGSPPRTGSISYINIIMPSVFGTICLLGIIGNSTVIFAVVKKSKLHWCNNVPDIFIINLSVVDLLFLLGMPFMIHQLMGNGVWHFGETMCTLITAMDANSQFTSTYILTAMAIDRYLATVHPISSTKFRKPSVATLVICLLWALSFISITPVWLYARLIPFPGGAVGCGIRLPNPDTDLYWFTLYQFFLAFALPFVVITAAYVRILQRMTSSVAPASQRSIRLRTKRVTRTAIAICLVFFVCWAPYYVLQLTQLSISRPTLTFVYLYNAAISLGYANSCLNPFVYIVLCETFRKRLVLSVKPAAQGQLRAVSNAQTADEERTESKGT

[12] = molecular target: T5, Delta-type opioid receptor; experiment: HTS Image-Based Screen for Antagonists of the DOR Receptor. [Related pubchem assays (depositor defined):AID1777, AID1785, AID1786, AID2133]; type: functional
Mu-type opioid receptor = Mu-type opioid receptor (Homo sapiens, UniProt P35372); experiment: HTS Image-Based Screen for Agonists of the MOR Receptor. [Related pubchem assays (depositor defined):AID1777, AID1785, AID1786, AID2133]; type: functional;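 also: imaging of beta-arrestin GFP recruitment into spots after receptor activation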
Chain of Mu-type opioid receptor (P35372 whole entry): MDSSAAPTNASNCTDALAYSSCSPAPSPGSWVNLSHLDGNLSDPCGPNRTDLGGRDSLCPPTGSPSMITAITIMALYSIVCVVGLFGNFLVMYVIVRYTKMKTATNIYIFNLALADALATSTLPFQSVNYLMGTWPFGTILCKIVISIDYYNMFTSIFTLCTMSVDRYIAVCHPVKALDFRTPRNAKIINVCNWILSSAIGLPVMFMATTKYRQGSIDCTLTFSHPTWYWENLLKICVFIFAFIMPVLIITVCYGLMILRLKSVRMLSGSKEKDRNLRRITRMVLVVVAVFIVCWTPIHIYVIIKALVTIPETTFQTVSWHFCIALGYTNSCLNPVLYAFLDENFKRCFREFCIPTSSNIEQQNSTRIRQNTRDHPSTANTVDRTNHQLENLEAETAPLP

[13] = molecular target: T4, Kappa-type opioid receptor; type: functional; remark: listed apart in the source
[14] = molecular target: E3 ubiquitin-protein ligase XIAP (Homo sapiens, UniProt P98170); experiment: Counter Screen using XIAP-Bir3 for Chemical Antagonists of Bir1/2 domains of IAP-family anti-apoptotic proteins. [Related pubchem assays (depositor defined):AID1018, AID1449, AID1514, AID1638, AID1749, AID1750, AID488957, AID488963]
Chain of E3 ubiquitin-protein ligase XIAP (P98170 whole entry): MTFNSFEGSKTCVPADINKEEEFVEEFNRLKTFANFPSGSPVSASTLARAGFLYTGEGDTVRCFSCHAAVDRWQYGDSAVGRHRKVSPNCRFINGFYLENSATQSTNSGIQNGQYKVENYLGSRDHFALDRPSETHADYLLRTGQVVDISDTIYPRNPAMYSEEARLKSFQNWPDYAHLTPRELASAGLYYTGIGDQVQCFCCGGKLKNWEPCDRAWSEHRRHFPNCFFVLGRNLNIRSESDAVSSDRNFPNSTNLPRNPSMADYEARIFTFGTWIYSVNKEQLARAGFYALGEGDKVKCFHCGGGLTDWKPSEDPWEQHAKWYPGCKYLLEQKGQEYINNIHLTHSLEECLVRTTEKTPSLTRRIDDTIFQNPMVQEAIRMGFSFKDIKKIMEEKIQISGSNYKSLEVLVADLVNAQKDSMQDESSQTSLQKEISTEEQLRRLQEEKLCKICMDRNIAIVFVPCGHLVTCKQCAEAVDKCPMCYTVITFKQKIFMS

Coagulation factor XII = Coagulation factor XII (Homo sapiens, UniProt P00748); type: functional;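 also: activated factor XIIa alpha cleaving a fluorogenic AMC peptide substrate; inhibitor potency from loss of enzyme activity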
Chain of Coagulation factor XII (P00748 20-372 limits assumed): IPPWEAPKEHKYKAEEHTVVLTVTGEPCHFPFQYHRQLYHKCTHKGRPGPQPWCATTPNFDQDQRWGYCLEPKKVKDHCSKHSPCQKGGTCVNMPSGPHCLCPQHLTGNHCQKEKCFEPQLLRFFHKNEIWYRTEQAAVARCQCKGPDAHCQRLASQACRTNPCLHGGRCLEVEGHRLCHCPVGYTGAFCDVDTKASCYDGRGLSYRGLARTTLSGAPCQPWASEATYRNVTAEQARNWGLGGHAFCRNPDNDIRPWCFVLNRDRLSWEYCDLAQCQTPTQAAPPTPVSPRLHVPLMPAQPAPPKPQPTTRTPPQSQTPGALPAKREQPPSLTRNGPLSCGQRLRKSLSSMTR
Chain of Coagulation factor XII (P00748 373-615 limits assumed): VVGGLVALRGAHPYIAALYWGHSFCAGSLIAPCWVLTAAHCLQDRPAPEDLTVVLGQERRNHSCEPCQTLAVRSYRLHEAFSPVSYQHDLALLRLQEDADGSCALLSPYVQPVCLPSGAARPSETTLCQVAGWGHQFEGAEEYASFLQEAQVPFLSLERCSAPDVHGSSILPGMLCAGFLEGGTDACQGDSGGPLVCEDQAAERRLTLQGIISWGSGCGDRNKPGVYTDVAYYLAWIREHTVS

CCn1cnc2c1c(=O)n(Cc1cccc([N+](=O)[O-])c1)c(=O)n2Cc1ccccc1
IC50 [1]: 0.173 µM (active) | IC50 [2]: 0.6 µM (active) | EC50 [3]: 0.181 µM (active)

C[C@H](NC(=O)c1nc[nH]c1C(=O)Nc1ccc(CNC(=O)OC(C)(C)C)cc1)C(=O)OC(C)(C)C
IC50 [4]: 2.55 µM (active)

CCCCN=C(S)N=Nc1c(O)[nH]c2ccccc12
IC50 (Bcl-2-related protein A1): > 20 µM (inactive) | IC50 [5]: 5.96 µM (active) | IC50 [6]: 8.6 µM (active)

O=C(c1ccccn1)N(Cc1ccco1)C1(C(=O)NC2CCCC2)CCCCC1
EC50 [7]: 12.3 µM | EC50 [8]: > 32 µM (inactive) | IC50 [9]: > 43.8 µM (not active) | EC50 [10]: > 260 µM (inactive) | IC50 [11]: > 43.8 µM (not active) | IC50 [12]: > 32 µM (inactive) | EC50 (Mu-type opioid receptor): > 32 µM (inactive) | EC50 [13]: 14.6 µM

O=C(Nc1ccc(Br)cc1)c1ccc(N2C(=O)C3CC=CCC3C2=O)cc1 (configuration not stated)
IC50 [14]: > 20 µM (inactive)

Cc1ccc(S(=O)(=O)CCN2C=CC(C(F)(F)F)=NCC2)cc1
IC50 (Coagulation factor XII): > 50 µM (inactive)
